Data taken from patent US9834571B2, “Compounds for inhibiting cell proliferation in EGFR-driven cancers” (ARIAD Pharmaceuticals, Inc., priority 2012, dated 2017).
Where two headings read alike, the source gives them in different places.

Columns and labels:
EGFR L858R/T790M = EGFR L858R/T790M (Homo sapiens, UniProt P00533, L858R/T790M); test: Kinase inhibitory activity against EGFR bearing the L858R/T790M double mutation; assay type: biochemical; conditions: 10 μM ATP, read-out: IC50 for kinase inhibition, EGFR L858R T790M
Summary of the method: (§1)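 Ten-point dose-response curves were run in singlicate from a 3 μM top concentration, with ATP at 10 μM.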

EGFR L858R = EGFR L858R (Homo sapiens, UniProt P00533, L858R); test: Kinase inhibitory activity against EGFR bearing the L858R mutation; assay type: biochemical; conditions: 10 μM ATP, read-out: IC50 for kinase inhibition, EGFR L858R
Summary of the method: as §1

[1] = tested on: BaF3 cells expressing wildtype EGFR; test: Antiproliferative activity (MTT) against control BaF3 cells expressing wildtype EGFR; assay type: cell-based; conditions: Mus musculus
Summary of the method: (§2)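 Antiproliferative effect was measured by MTT in BaF3 cells engineered to express mutant EGFR, with wildtype-EGFR BaF3 cells as the control line.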

[2] = molecular target: T1, BaF3 cells expressing the target EGFR mutations (Homo sapiens, UniProt P00533, T790M, cells depend on it, form not given); test: Antiproliferative activity (MTT) against BaF3 cells expressing the target EGFR mutations; assay type: cell-based; conditions: BAF3 EGFR DEL T790M PURO POOL cells, read-out: IC50, BAF3 EGFR DEL T790M PURO POOL
T1 construct: IC50, BAF3 EGFR DEL T790M PURO POOL; other: BAF3 EGFR DEL T790M PURO POOL cells, MTT; other: BAF3 EGFR DEL T790M PURO POOL cells; MTT
Summary of the method: as §2

[3] = molecular target: T2, BaF3 cells expressing the target EGFR mutations (Homo sapiens, UniProt P00533, T790M/L858R, cells depend on it); test: as above; assay type: cell-based; conditions: BAF3 EGFR L858R-T790M PURO POOL cells, read-out: IC50, BAF3 EGFR L858R-T790M PURO POOL
T2 construct: IC50, BAF3 EGFR L858R-T790M PURO POOL; other: BAF3 EGFR L858R-T790M PURO POOL cells, MTT; IC50, BAF3 EGFR L858R-T790M PURO POOL; other: BAF3 EGFR L858R-T790M PURO POOL cells; MTT
Summary of the method: as §2

[4] = molecular target: human EGFR (native sequence) (Homo sapiens, UniProt P00533); test: Kinase inhibitory activity against human EGFR (native sequence); assay type: biochemical; conditions: 10 μM ATP, read-out: IC50 for kinase inhibition, EGFR
Summary of the method: as §1

[5] = 10 pt curves, 3 μM top concentration
[6] = EGFR L858R/T790M double mutation

EGFR L858R, sequence (P00533 25-1210 L858R): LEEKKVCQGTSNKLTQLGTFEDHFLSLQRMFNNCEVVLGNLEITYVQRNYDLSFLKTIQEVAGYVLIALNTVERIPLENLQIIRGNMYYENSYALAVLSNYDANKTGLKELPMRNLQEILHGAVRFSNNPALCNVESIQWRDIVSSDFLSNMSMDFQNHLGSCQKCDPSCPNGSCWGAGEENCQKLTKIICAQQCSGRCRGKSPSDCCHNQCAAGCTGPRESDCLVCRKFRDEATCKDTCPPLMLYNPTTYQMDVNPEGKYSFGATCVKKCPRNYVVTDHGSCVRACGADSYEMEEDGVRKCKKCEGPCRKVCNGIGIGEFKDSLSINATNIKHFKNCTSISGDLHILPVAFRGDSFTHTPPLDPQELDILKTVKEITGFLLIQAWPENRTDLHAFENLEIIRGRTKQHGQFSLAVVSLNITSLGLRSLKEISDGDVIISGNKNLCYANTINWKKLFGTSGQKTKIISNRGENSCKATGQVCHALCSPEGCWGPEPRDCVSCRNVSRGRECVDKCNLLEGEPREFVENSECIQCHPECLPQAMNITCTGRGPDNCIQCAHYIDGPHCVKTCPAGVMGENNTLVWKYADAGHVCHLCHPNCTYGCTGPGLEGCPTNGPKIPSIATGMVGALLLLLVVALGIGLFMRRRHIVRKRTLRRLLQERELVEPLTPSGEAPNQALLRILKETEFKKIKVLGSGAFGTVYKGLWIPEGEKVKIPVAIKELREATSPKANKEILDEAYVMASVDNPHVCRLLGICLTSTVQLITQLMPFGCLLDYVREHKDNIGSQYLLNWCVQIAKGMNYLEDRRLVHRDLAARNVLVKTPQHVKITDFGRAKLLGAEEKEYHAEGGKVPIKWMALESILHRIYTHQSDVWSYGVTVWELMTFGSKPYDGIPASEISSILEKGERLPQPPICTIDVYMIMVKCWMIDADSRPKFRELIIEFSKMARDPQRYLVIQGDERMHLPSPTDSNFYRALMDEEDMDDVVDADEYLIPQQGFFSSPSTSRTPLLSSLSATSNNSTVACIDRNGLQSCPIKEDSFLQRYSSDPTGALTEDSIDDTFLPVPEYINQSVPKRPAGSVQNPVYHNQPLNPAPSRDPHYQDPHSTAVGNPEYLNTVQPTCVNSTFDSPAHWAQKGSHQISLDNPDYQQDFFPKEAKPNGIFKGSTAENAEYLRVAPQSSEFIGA
human EGFR (native sequence), sequence (P00533 25-1210): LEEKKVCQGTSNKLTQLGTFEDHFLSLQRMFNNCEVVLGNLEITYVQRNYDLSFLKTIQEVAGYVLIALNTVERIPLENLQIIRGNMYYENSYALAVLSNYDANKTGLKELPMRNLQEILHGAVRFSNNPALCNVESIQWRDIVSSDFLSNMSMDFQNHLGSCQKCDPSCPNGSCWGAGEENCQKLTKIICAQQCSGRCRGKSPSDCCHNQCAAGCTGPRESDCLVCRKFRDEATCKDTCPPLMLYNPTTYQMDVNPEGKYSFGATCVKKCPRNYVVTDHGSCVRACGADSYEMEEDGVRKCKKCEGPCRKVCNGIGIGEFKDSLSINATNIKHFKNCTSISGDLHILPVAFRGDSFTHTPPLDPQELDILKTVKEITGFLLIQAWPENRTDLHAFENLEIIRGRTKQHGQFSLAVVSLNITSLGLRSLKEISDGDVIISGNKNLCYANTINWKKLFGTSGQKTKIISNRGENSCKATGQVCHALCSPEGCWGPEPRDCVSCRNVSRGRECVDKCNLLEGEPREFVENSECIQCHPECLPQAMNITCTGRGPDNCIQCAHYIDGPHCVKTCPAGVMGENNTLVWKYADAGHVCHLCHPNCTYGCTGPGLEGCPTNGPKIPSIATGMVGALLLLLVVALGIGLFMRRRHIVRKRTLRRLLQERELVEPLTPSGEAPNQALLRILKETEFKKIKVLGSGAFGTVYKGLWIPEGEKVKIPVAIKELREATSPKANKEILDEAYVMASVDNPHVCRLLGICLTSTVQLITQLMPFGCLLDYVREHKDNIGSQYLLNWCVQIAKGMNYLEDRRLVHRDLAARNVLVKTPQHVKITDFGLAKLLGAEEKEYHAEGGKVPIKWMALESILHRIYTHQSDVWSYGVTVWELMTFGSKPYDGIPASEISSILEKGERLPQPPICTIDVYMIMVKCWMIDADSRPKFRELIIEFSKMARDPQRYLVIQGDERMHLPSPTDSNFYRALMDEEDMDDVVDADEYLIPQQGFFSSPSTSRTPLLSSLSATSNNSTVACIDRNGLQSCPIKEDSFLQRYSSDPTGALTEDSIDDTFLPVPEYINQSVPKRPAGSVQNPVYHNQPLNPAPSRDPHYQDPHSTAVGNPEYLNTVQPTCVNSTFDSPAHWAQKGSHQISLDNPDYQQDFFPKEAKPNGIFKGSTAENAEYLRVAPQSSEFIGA
T2 sequence (P00533 whole entry T790M/L858R): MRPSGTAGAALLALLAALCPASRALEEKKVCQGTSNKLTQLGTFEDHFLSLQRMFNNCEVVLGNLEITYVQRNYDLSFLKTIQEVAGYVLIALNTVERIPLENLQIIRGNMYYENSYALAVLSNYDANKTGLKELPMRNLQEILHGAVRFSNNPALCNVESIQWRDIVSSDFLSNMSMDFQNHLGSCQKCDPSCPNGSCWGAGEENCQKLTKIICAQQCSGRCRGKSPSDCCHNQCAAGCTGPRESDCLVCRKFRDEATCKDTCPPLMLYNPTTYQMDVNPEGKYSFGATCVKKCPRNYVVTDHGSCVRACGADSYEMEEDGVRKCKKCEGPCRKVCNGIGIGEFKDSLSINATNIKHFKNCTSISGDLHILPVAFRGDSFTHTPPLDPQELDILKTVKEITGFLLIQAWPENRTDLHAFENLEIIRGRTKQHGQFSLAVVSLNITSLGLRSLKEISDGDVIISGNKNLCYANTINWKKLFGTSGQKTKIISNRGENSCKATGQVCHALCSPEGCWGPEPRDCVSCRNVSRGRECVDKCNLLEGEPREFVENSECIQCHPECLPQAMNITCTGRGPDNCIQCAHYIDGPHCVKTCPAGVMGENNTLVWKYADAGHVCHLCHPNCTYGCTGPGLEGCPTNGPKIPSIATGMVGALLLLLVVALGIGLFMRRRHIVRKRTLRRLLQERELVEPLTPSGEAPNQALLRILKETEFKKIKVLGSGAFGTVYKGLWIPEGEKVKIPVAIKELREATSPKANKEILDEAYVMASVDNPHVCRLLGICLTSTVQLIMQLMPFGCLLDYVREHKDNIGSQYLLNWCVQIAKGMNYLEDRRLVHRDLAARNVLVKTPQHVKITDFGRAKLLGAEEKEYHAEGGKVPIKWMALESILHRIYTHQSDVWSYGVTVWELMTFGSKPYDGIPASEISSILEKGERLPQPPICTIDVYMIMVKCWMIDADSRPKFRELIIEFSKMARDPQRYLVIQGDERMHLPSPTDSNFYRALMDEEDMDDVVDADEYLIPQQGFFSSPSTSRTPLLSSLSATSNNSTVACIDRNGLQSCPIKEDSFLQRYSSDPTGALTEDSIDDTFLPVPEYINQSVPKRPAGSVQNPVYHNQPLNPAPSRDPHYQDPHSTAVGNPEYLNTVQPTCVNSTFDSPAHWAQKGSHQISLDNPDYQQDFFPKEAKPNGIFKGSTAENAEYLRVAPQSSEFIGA
T1 sequence (P00533 with tags, fused parts or gaps DEL746-750/T790M, form open): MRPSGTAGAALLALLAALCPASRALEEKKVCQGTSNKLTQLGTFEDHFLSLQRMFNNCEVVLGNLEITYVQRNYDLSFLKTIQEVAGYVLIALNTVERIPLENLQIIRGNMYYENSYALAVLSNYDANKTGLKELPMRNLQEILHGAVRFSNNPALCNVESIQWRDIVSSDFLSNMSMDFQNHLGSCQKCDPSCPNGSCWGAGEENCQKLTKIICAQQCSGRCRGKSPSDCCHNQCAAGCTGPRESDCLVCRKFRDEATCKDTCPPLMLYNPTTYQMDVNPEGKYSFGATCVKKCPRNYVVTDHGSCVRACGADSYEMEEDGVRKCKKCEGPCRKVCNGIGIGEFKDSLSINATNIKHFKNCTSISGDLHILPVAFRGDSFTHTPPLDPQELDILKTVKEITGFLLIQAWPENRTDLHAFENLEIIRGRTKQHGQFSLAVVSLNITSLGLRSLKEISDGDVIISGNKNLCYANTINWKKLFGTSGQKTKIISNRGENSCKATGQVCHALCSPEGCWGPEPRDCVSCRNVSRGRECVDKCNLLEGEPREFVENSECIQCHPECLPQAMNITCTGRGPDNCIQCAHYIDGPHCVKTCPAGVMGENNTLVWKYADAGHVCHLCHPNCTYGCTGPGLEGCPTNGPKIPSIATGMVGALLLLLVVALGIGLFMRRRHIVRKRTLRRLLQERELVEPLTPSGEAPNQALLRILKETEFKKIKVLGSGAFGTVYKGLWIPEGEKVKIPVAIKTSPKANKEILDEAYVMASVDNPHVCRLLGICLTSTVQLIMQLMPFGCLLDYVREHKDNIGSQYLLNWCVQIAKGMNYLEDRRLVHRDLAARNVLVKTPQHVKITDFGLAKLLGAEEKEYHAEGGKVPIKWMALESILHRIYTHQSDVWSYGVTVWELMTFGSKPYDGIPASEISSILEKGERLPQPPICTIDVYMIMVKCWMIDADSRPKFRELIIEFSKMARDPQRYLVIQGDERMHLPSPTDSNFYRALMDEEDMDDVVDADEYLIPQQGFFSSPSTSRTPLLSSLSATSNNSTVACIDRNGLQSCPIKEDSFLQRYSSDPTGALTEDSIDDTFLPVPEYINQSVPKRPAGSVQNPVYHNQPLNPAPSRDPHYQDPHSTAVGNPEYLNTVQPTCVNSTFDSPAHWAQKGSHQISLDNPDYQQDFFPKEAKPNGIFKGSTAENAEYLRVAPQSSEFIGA

Row | SMILES | IC50 (EGFR L858R/T790M; [5]) [nM] | IC50 (EGFR L858R; [5]) [nM] | IC50 ([1]; BAF3 parental cells) [nM] | GI50 [2] [nM] | GI50 [3] [nM] | IC50 [4, 5] [nM] | IC50 (EGFR L858R/T790M; [6]) [nM] | IC50 (EGFR L858R; EGFR L858R) [nM] | IC50 ([1]; BAF3 PARENTAL cells (control)) [nM] | IC50 ([4]; human EGFR native sequence) [nM]
1 | C=CC(=O)Nc1cc(Nc2ncc(Cl)c(Nc3ccccc3P(C)(C)=O)n2)c(OC)cc1OC(COC)CN(C)C (stereo not drawn) [Example 130, N-(5-((5-chloro-4-((2-(dimethylphosphoryl)phenyl)amino)pyrimidin-2-yl)amino)-2-((1-(dimethylamino)-3-methoxypropan-2-yl)oxy)-4-methoxyphenyl)acrylamide] | < 50 | < 50 | ≥ 250 | < 50 | < 50 | < 50 |  |  |  | 
2 | C=C(CN1CCN(CCO)CC1)C(=O)Nc1ccc(OC)c(Nc2ncc(Cl)c(Nc3ccccc3P(C)(C)=O)n2)c1 [Example 52, N-(3-((5-chloro-4-((2-(dimethylphosphoryl)phenyl)amino)pyrimidin-2-yl)amino)-4-methoxyphenyl)-2-((4-(2-hydroxyethyl)piperazin-1-yl)methyl)acrylamide] |  |  |  | < 50 | < 50 |  | < 50 | < 50 | ≥ 250 | < 50
3 | C=CC(=O)Nc1cc(Nc2ncc(Cl)c(Nc3ccccc3P(C)(C)=O)n2)c(OC)cc1N1CCC(N(C)C)C1 (stereo not drawn) [Example 24, N-(5-((5-chloro-4-((2-(dimethylphosphoryl)phenyl)amino)pyrimidin-2-yl)amino)-2-(3-(dimethylamino)pyrrolidin-1-yl)-4-methoxyphenyl)acrylamide] |  |  |  | < 50 | < 50 |  | < 50 | < 50 | ≥ 250 | < 50
4 | C=C(CN1CCN(C(C)C)CC1)C(=O)Nc1ccc(OC)c(Nc2ncc(Cl)c(Nc3ccccc3P(C)(C)=O)n2)c1 [Example 50, N-(3-((5-chloro-4-((2-(dimethylphosphoryl)phenyl)amino)pyrimidin-2-yl)amino)-4-methoxyphenyl)-2-((4-isopropylpiperazin-1-yl)methyl)acrylamide] |  |  |  | < 50 | < 50 |  | < 50 | < 50 | ≥ 250 | 50 to 100
5 | C=CC(=O)Nc1cc(Nc2ncc(Cl)c(Nc3ccccc3P(C)(C)=O)n2)c(OC)cc1N1CCC(N(C)CCN(CC)CC)C1 (stereo not drawn) [Example 38, N-(5-((5-chloro-4-((2-(dimethylphosphoryl)phenyl)amino)pyrimidin-2-yl)amino)-2-(3-((2-(diethylamino)ethyl)(methyl)amino)pyrrolidin-1-yl)-4-methoxyphenyl)acrylamide] |  |  |  | < 50 | 101 to 250 |  | < 50 | < 50 | ≥ 250 | < 50
6 | C=CC(=O)Nc1cc(Nc2ncc(Cl)c(Nc3ccccc3P(C)(C)=O)n2)c(OC)cc1N1CCC(N2CCCCC2)CC1 [Example 69, N-(2-([1,4′-bipiperidin]-1-yl)-5-((5-chloro-4-((2-(dimethylphosphoryl)phenyl)amino)pyrimidin-2-yl)amino)-4-methoxyphenyl)acrylamide] |  |  |  | < 50 | < 50 |  | < 50 | < 50 | ≥ 250 | < 50
7 | C=CC(=O)Nc1cc(Nc2ncc(Cl)c(Nc3ccccc3P(C)(C)=O)n2)c(OC)cc1N1CCC(N2CCN(CCO)CC2)C1 (stereo not drawn) [Example 40, N-(5-((5-chloro-4-((2-(dimethylphosphoryl)phenyl)amino)pyrimidin-2-yl)amino)-2-(3-(4-(2-hydroxyethyl)piperazin-1-yl)pyrrolidin-1-yl)-4-methoxyphenyl)acrylamide] |  |  |  | ≥ 250 | ≥ 250 |  | < 50 | < 50 | ≥ 250 | < 50
8 | COc1cc(N2CCOCC2)c(NC(=O)C#CCCN2CCN(C)CC2)cc1Nc1ncc(Cl)c(Nc2ccccc2P(C)(C)=O)n1 [Example 118, N-(5-((5-chloro-4-((2-(dimethylphosphoryl)phenyl)amino)pyrimidin-2-yl)amino)-4-methoxy-2-morpholinophenyl)-5-(4-methylpiperazin-1-yl)pent-2-ynamide] | < 50 | < 50 | ≥ 250 | < 50 | < 50 | < 50 |  |  |  | 
9 | C=C(CN1CCCCC1)C(=O)Nc1ccc(OC)c(Nc2ncc(Cl)c(Nc3ccccc3P(C)(C)=O)n2)c1 [Example 43, N-(3-((5-chloro-4-((2-(dimethylphosphoryl)phenyl)amino)pyrimidin-2-yl)amino)-4-methoxyphenyl)-2-(piperidin-1-ylmethyl)acrylamide] |  |  |  | < 50 | < 50 |  | < 50 | < 50 | ≥ 250 | < 50
10 | C=CC(=O)Nc1cc(Nc2ncc(Cl)c(Nc3ccccc3P(C)(C)=O)n2)c(OC)cc1C#CC(C)(C)N1CCCC1 [Example 116, N-(5-((5-chloro-4-((2-(dimethylphosphoryl)phenyl)amino)pyrimidin-2-yl)amino)-4-methoxy-2-(3-methyl-3-(pyrrolidin-1-yl)but-1-yn-1-yl)phenyl)acrylamide] | < 50 | < 50 | ≥ 250 | < 50 | < 50 | 50 to 100 |  |  |  | 
11 | COc1ccc(NC(=O)/C=C/C(=O)NCCN(C)C)cc1Nc1ncc(Cl)c(Nc2ccccc2P(C)(C)=O)n1 [Example 58, N1-(3-((5-chloro-4-((2-(dimethylphosphoryl)phenyl)amino)pyrimidin-2-yl)amino)-4-methoxyphenyl)-N4-(2-(dimethylamino)ethyl)fumaramide] |  |  |  | ≥ 250 | ≥ 250 |  | < 50 | < 50 | ≥ 250 | < 50
12 | C=CC(=O)Nc1ccc(OC)c(Nc2ncc(Cl)c(Nc3ccc(OCCN(C)C)cc3P(C)(C)=O)n2)c1 [Example 125, N-(3-((5-chloro-4-((4-(2-(dimethylamino)ethoxy)-2-(dimethylphosphoryl)phenyl)amino)pyrimidin-2-yl)amino)-4-methoxyphenyl)acrylamide] | < 50 | < 50 | ≥ 250 | < 50 | < 50 | < 50 |  |  |  | 
13 | COc1ccc(NC(=O)C2=CCCN(C)C2)cc1Nc1ncc(Cl)c(Nc2ccccc2P(C)(C)=O)n1 [Example 84, N-(3-((5-chloro-4-((2-(dimethylphosphoryl)phenyl)amino)pyrimidin-2-yl)amino)-4-methoxyphenyl)-1-methyl-1,2,5,6-tetrahydropyridine-3-carboxamide] |  |  |  | ≥ 250 | ≥ 250 |  | < 50 | < 50 | ≥ 250 | ≥ 250
14 | C=CC(=O)Nc1cc(Nc2ncc(Cl)c(Nc3ccccc3P(C)(C)=O)n2)c(OC)cc1OCCN1CCCC1 [Example 1, N-(5-((5-chloro-4-((2-(dimethylphosphoryl)phenyl)amino)pyrimidin-2-yl)amino)-4-methoxy-2-(2-(pyrrolidin-1-yl)ethoxy)phenyl)acrylamide] |  |  |  | < 50 | < 50 |  | < 50 | < 50 | ≥ 250 | < 50
15 | COCC#CC(=O)Nc1cc(Nc2ncc(Cl)c(Nc3ccccc3P(C)(C)=O)n2)c(OC)cc1N1CCOCC1 [Example 105, N-(5-((5-chloro-4-((2-(dimethylphosphoryl)phenyl)amino)pyrimidin-2-yl)amino)-4-methoxy-2-morpholinophenyl)-4-methoxybut-2-ynamide] | < 50 | < 50 | ≥ 250 | < 50 | < 50 | < 50 |  |  |  | 
16 | C=CC(=O)Nc1cc(Nc2ncc(Cl)c(Nc3ccccc3P(C)(C)=O)n2)c(OC)cc1N(C)CCN(C)CCF [Example 67, N-(5-((5-chloro-4-((2-(dimethylphosphoryl)phenyl)amino)pyrimidin-2-yl)amino)-2-((2-((2-fluoroethyl)(methyl)amino)ethyl)(methyl)amino)-4-methoxyphenyl)acrylamide] |  |  |  | < 50 | < 50 |  | < 50 | < 50 | ≥ 250 | < 50
